Data set [1] in a line: Rodent pharmacokinetic study. In kind it is in vivo. Conditions: plasma, Wistar/Male rat, 10 mg/kg; for AUC(0-t) / half-life / Cmax / Tmax: vehicle water (Ex. 8: 50% PEG 400); for Cmax: read-out: Cmax; for Tmax: read-out: Tmax; for bioavailability: Oral vs Intravenous, read-out: Bioavailability. Here is the method:
Male wistar rats (230-280 grams) obtained from NIN (National Institute of Nutrition, Hyderabad, India) were used as an experimental animal. Three to five animals were housed in each cage. Animals were kept fasted over night and maintained on a 12 hours light/dark cycle. Three rats were dosed NCE (10 mg/Kg) orally and intravenously on day 0 and day 2.
At each time point blood was collected by jugular vein. Plasma was stored frozen at −20° C. until analysis. The concentrations of the NCE compound in plasma were determined using LC-MS/MS method. Schedule time points: Pre dose 0.25, 0.5, 1, 1.5, 2, 3, 4, 6, 8, 10, 12 and 24 hours after dosing (n=3). The NCE compounds were quantified in plasma by validated LC-MS/MS method using solid phase extraction technique. NCE compounds were quantified in the calibration range of 2-2000 ng/mL in plasma. Study samples were analyzed using calibration samples in the batch and quality control samples spread across the batch.
Pharmacokinetic parameters Cmax, Tmax, AUCt, T1/2 and Bioavailability were calculated by non-compartmental model using software WinNonlin version 5.1.

A short description of data set [2]: Object recognition task model. In kind it is in vivo. Conditions: rat, p.o. Here is the method: The cognition-enhancing properties of compounds of this invention were estimated using a model of animal cognition: the object recognition task model.
Male Wister rats (230-280 grams) obtained from N.I.N. (National Institute of Nutrition, Hyderabad, India) was used as experimental animals. Four animals were housed in each cage. Animals were kept on 20% food deprivation before one day and given water ad libitum throughout the experiment and maintained on a 12 hours light/dark cycle. Also the rats were habituated to individual arenas for 1 hour in the absence of any objects.
One group of 12 rats received vehicle (1 mL/Kg) orally and another set of animals received compound of the formula (I) either orally or i.p., before one hour of the familiar (T1) and choice trial (T2).
The experiment was carried out in a 50×50×50 cm open field made up of acrylic. In the familiarization phase, (T1), the rats were placed individually in the open field for 3 minutes, in which two identical objects (plastic bottles, 12.5 cm height×5.5 cm diameter) covered in yellow masking tape alone (a1 and a2) were positioned in two adjacent corners, 10 cm. from the walls. After 24 hours of the (T1) trial for long-term memory test, the same rats were placed in the same arena as they were placed in T1 trial. Choice phase (T2) rats were allowed to explore the open field for 3 minutes in presence of one familiar object (a3) and one novel object (b) (Amber color glass bottle, 12 cm high and 5 cm in diameter). Familiar objects presented similar textures, colors and sizes. During the T1 and T2 trial, explorations of each object (defined as sniffing, licking, chewing or having moving vibrissae whilst directing the nose towards the object at a distance of less than 1 cm) were recorded separately by stopwatch. Sitting on an object was not regarded as exploratory activity, however, it was rarely observed. T1 is the total time spent exploring the familiar objects (a1+a2). T2 is the total time spent exploring the familiar object and novel object (a3+b).
The object recognition test was performed as described by Ennaceur, A., Delacour, J., 1988, A new one-trial test for neurobiological studies of memory in rats—Behavioural data, Behav. Brain Res., 31, 47-59.

Data set [3] addresses T1, recombinant human 5-HT6 receptor (Homo sapiens, UniProt P50406).
T1 construct: expressed in transfected cells
Put plainly: Determination of Kb values for 5-HT6 receptor (CHO pCRE-Luc reporter assay). In kind it is cell-based. The note with it: antagonism of 10 uM serotonin, luciferase reporter, CHO cells. As to the method:
A stable CHO cell line expressing recombinant human 5-HT6 receptor and pCRE-Luc reporter system was used for cell-based assay. The assay offers a non-radioactive based approach to determine binding of a compound to GPCRs. In this specific assay, the level of intracellular cyclic AMP which is modulated by activation or inhibition of the receptor is measured. The recombinant cells harbor luciferase reporter gene under the control of cAMP response element.
The above cells were grown in 96 well clear bottom white plates in Hams F12 medium containing 10% fetal bovine serum (FBS). Prior to the addition of compounds and/or agonist, cells were serum starved overnight. Increasing concentrations of test compounds were added along with 10 uM serotonin in Hams F12 medium containing 1% dialyzed FBS to the cells. The incubation was continued at 37° C. in CO2 incubator for 4 hours. Medium was removed and cells were washed with phosphate buffered saline. The cells were lysed and luciferase activity was measured in a Luminometer. Luminescence units were plotted against the compound concentrations using Graphpad software. EC50 values of the compounds were defined as the concentration required reducing the luciferase activity by 50%. The Kb values were calculated by feeding the concentration of the agonist used in the assay and its EC50 value in the same software.
For orientation: A reporter such as luciferase makes a cellular process visible.

We go through 18 compounds from patent US9018231B2, “Sulfone compounds as 5-HT6 receptor ligands” (Suven Life Sciences Limited, priority 2010, dated 2015).

Counter-ions that a name gives are not always drawn. Like-named read-outs stand apart in the source and are kept apart here.

T1 sequence (P50406 whole entry): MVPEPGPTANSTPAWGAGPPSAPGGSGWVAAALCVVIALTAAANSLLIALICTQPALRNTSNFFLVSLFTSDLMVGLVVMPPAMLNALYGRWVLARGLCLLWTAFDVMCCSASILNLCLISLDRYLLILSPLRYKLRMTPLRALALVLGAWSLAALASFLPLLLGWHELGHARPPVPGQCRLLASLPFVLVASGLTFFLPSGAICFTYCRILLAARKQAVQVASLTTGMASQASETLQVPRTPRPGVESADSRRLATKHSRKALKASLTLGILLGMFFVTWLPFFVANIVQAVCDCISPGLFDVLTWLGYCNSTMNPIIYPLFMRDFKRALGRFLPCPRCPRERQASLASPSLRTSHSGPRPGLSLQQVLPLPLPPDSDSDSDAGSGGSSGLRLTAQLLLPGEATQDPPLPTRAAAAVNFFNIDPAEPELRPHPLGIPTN

The term melting point denotes the temperature, or range, at which the solid turns liquid. The compound `COc1ccc2[nH]cc(S(=O)(=O)c3ccc(Cl)c(NC4CCN(C)CC4)c3)c2c1.Cl` displayed a melting point of 240.3 to 243.2 °C.

What is called AUC(0-t) is the area under the concentration-time curve up to a stated or last time point. High values mean high exposure, low ones low exposure. As usually defined, the half-life is how long it takes for the measured level to halve. Broadly, the Cmax is the peak of the concentration-time curve. What is called Tmax is the time at which the peak concentration occurs. Usually bioavailability stands for the share of a dose that reaches the circulation, judged against a reference dose that is usually intravenous. As usually defined, the Kb is the affinity of an antagonist, worked out from how it opposes an agonist. For `COc1ccc(S(=O)(=O)c2cc(Br)ccc2OC)cc1NC1CCN(C)CC1.Cl` [Example 3, N-[5-(5-Bromo-2-methoxybenzenesulfonyl)-2-methoxyphenyl]-N-(1-methylpiperidin-4-yl)amine hydrochloride salt], in data set [1] (Intravenous), the AUC(0-t) came to 1610 ± 544 ng·h/mL, the half-life is 94.2 ± 12.6 min, the highest concentration (Cmax) stood at 1080 ± 569 ng/mL and the Tmax is 7.2 ± 5.4 min. In data set [1], the bioavailability was determined as 38 ± 1%. Further, in data set [1] (Oral), the AUC(0-t) turned out to be 931 ± 186 ng·h/mL, the half-life is 81 ± 16.2 min, the Cmax came out at 341 ± 60 ng/mL and the Tmax was found to be 33.6 ± 18.6 min. In addition, in data set [2] (1 mg/kg), the “Exploration time mean ± S.E.M, Familiar object” value amounted to 4.53 ± 0.72 s; the “Exploration time mean ± S.E.M, Novel object” value is 10.29 ± 1.54 s; the Inference entry is listed as “Active”. Besides, in data set [3], the Kb turned out to be 0.01 nM.

On to `CN1CCC(Nc2cccc(S(=O)(=O)c3c[nH]c4cc(Cl)ccc34)c2)CC1` [Example 5, N-(1-Methylpiperidin-4-yl)-N-[3-(6-chloro-1H-indole-3-ylsulfonyl)phenyl]amine hydrochloride], for which, in data set [3], the antagonist dissociation constant (Kb) is 3.38 nM.

`CN1CCC(Nc2cccc(S(=O)(=O)c3c[nH]c4ccc(F)cc34)c2)CC1.Cl` [Example 6, N-(1-Methylpiperidin-4-yl)-N-[3-(5-fluoro-1H-indole-3-ylsulfonyl)phenyl]amine hydrochloride] yielded a melting point of 229.7 to 233.1 °C. In addition, the antagonist dissociation constant (Kb) in data set [3] was 3.59 nM.

As to `COc1ccc(S(=O)(=O)c2c[nH]c3ccccc23)cc1NC1CCN(C)CC1` [Example 11, N-(1-Methylpiperidin-4-yl)-N-[2-methoxy-5-(1H-Indole-3-ylsulfonyl)phenyl]amine], in data set [2] (3 mg/kg), the “Exploration time mean ± S.E.M, Familiar object” value was 9.19 ± 1.44 s; the “Exploration time mean ± S.E.M, Novel object” value came out at 14.24 ± 1.29 s; the Inference entry is listed as “Active”. In data set [3], the antagonist dissociation constant (Kb) stood at 0.05 nM.

In the case of `COc1ccc2[nH]cc(S(=O)(=O)c3ccc(OC)c(NC4CCN(C)CC4)c3)c2c1` [Example 13, N-(1-Methylpiperidin-4-yl)-N-[2-methoxy-5-(5-methoxy-1H-Indole-3-ylsulfonyl)phenyl]amine], the Kb in data set [3] is 0.11 nM.

Take `COc1ccc2[nH]cc(S(=O)(=O)c3ccc(OC)c(NC4CCNCC4)c3)c2c1` [Example 14, N-(Piperidin-4-yl)-N-[2-methoxy-5-(5-methoxy-1H-Indole-3-ylsulfonyl)phenyl]amine]: the antagonist dissociation constant (Kb) in data set [3] was 0.16 nM.

Consider `CN1CCC(Nc2cc(S(=O)(=O)c3c[nH]c4cc(Cl)ccc34)ccc2Cl)CC1` [Example 15, N-(1-Methylpiperidin-4-yl)-N-[2-chloro-5-(6-chloro-1H-Indole-3-ylsulfonyl)phenyl] amine], for which the melting point lay within 186.1 to 189.9 °C.

Take `COc1ccc(Br)cc1S(=O)(=O)c1ccc(C)c(NC2CCNCC2F)c1` (stereo not drawn) [Example 18, N-[5-(5-Bromo-2-methoxybenzenesulfonyl)-2-methylphenyl]-N-(3-fluoropiperidin-4-yl) amine hydrochloride]: in data set [3], the antagonist dissociation constant (Kb) was found to be 6.1 nM.

Take `COc1ccc(Br)cc1S(=O)(=O)c1ccc(C)c(NC2CCNCC2)c1` [Example 22, N-[5-(5-Bromo-2-methoxybenzenesulfonyl)-2-methylphenyl]-N-(piperidin-4-yl)amine hydrochloride]: the Kb in data set [3] worked out at 1.1 nM.

For `COc1ccc(Br)cc1S(=O)(=O)c1ccc(C)c(NC2CCN(C)CC2)c1` [Example 23, N-[5-(5-Bromo-2-methoxybenzenesulfonyl)-2-methylphenyl]-N-(1-methylpiperidin-4-yl)amine hydrochloride], in data set [3], the antagonist dissociation constant (Kb) worked out at 2.1 nM.

For `COc1ccc(S(=O)(=O)c2cc(Br)ccc2OC)cc1NC1CCNCC1F.Cl` (stereo not drawn) [Example 28, N-[5-(5-Bromo-2-methoxybenzenesulfonyl)-2-methoxyphenyl]-N-(3-fluoropiperidin-4-yl)amine hydrochloride], in data set [1] (Intravenous), the AUC(0-t) was 3470 ± 161 ng·h/mL, the half-life was 87.6 ± 7.8 min, the highest concentration (Cmax) amounted to 1920 ± 29 ng/mL and the Tmax is 4.8 min. The bioavailability in data set [1] amounted to 44 ± 18%. Besides, in data set [1] (Oral), the AUC(0-t) turned out to be 1520 ± 630 ng·h/mL, the half-life was 81.6 ± 4.2 min, the Cmax worked out at 429 ± 181 ng/mL and the Tmax was found to be 49.8 ± 17.4 min. Further, in data set [2] (1 mg/kg), the “Exploration time mean ± S.E.M, Familiar object” value is 6.26 ± 0.30 s; the “Exploration time mean ± S.E.M, Novel object” value was determined as 11.46 ± 1.02 s; the Inference entry is reported as “Active”. In addition, in data set [3], the Kb amounted to 0.1 nM.

Turning to `COc1ccc(S(=O)(=O)c2cc(Br)ccc2OC)cc1NC1CCNCC1` [Example 29, N-[5-(5-Bromo-2-methoxybenzenesulfonyl)-2-methoxyphenyl]-N-(piperidin-4-yl)amine hydrochloride], the Kb in data set [3] amounted to 0.1 nM.

With `COc1ccc(S(=O)(=O)c2ccc(OC)c(NC3CCN(C)CC3)c2)cc1Br` [Example 30, N-[5-(3-Bromo-4-methoxybenzenesulfonyl)-2-methoxyphenyl]-N-(1-methylpiperidin-4-yl)amine tartarate], in data set [3], the antagonist dissociation constant (Kb) stood at 0.01 nM.

In the case of `COc1ccc(S(=O)(=O)c2cc(F)ccc2OC)cc1NC1CCN(C)CC1` [Example 31, N-[5-(5-Fluoro-2-methoxybenzenesulfonyl)-2-methoxyphenyl]-N-(1-methylpiperidin-4-yl)amine tartarate], the antagonist equilibrium constant (Kb) in data set [3] was found to be 0.05 nM.

In the case of `COc1ccc(S(=O)(=O)c2ccc(Cl)cc2)cc1NC1CCN(C)CC1` [Example 32, N-[5-(4-Chlorobenzenesulfonyl)-2-methoxyphenyl]-N-(1-methylpiperidin-4-yl)amine tartarate], in data set [3], the Kb was found to be 0.06 nM.

Take `COc1ccc(S(=O)(=O)c2ccc(OC)c(NC3CCN(C)CC3)c2)cc1Cl` [Example 34, N-[5-(3-Chloro-4-methoxybenzenesulfonyl)-2-methoxyphenyl]-N-(1-methylpiperidin-4-yl)amine tartarate]: the Kb in data set [3] is 0.1 nM.

`Cc1ccc(S(=O)(=O)c2ccccc2)cc1NC1CCN(C)CC1` [Example 35, N-(5-Benzenesulfonyl-2-methylphenyl)-N-(1-methylpiperidin-4-yl)amine]: in data set [2] (10 mg/kg), the “Exploration time mean ± S.E.M, Familiar object” value was determined as 9.37 ± 1.66 s; the “Exploration time mean ± S.E.M, Novel object” value was 15.81 ± 2.89 s; the Inference entry is “Active”.
